Drawing on patent publication US4952560A, “Ointment base” (Takeda Chemical Industries, Ltd., priority 1984, dated 1990), this text covers Pressor reaction for 1 compound.

Counter-ions that a name gives are not always drawn.

This test deals with Pressor reaction (norepinephirine). Briefly: Pressor reaction inhibiting effect of prazosin hydrochloride-containing preparation (Test Example 2). The format is in vivo, male SD rats. As to conditions: oral, 20 mg/kg once daily, 3 days; 24 h after last dose; norepinephirine 3 μg/kg i.v.; control 48.6 ± 1.2; * significant difference from control (risk factor 5%).

Protocol: (B) A suspension of prazosin hydrochloride in 1% gum arabic suspension was orally administered.
The dosage for both treatment groups was 20 mg/kg once daily and the treatment was carried out for 3 consecutive days. Twenty-four hours after the last dosing, 3 μg/kg of norepinephirine was intravenously administered under pentobarbital sodium anesthesia (dosage 40 mg/kg; intraperitoneal) and the resulting pressor reaction was compared with that in the untreated control group.

For the compound `COc1cc2nc(N3CCN(C(=O)c4ccco4)CC3)nc(N)c2cc1OC` [prazosin hydrochloride], the Pressor reaction turned out to be 34.9 ± 2.2 mmHg.
